Experimental data taken from patent publication US4593093A, “Acyl derivatives” (priority 1980, dated 1986).
Structures can show the parent of a compound that is named as a salt. Where two headings read alike, the source gives them in different places.

What was measured:
[1] = system: Escherichia coli; experiment: Activity in vitro: minimum inhibitory concentration; assay type: cell-based
[2] = system: Proteus mirabilis; experiment: as above; assay type: cell-based
[3] = system: Proteus morganii; experiment: as above; assay type: cell-based; conditions: Morganella morganii
[4] = system: Proteus rettgeri; experiment: as above; assay type: cell-based; conditions: Providencia rettgeri
[5] = system: Proteus inconstans; experiment: as above; assay type: cell-based; conditions: Providencia alcalifaciens
[6] = system: Proteus vulgaris; experiment: as above; assay type: cell-based
[7] = system: Klebsiella pseumoniae; experiment: as above; assay type: cell-based
[8] = system: Serratia marcescens; experiment: as above; assay type: cell-based
[9] = system: Enterobacter cloacae; experiment: as above; assay type: cell-based
[10] = system: Enterobacter aerogenes; experiment: as above; assay type: cell-based; conditions: Klebsiella aerogenes
[11] = system: Citrobacter freundii; experiment: as above; assay type: cell-based
[12] = system: Pseudomonas aeruginosa; experiment: as above; assay type: cell-based
[13] = system: Staphylococcus aureus; experiment: as above; assay type: cell-based
[14] = system: Staphylococcus epidermis; experiment: as above; assay type: cell-based
[15] = system: Streptococcus faecalis; experiment: as above; assay type: cell-based; conditions: Enterococcus faecalis
[16] = system: Streptococcus pyogenes; experiment: as above; assay type: cell-based
[17] = system: Streptococcus pneumoniae; experiment: as above; assay type: cell-based
[18] = system: Streptococcus viridans; experiment: as above; assay type: cell-based
[19] = system: Enterobacter cloacae; experiment: Activity in vivo: survival of intraperitoneally infected mice; conditions: sc, 96 h; mice infected i.p. with Enterobacter cloacae; s.c. twice, 1 h and 3 h after infection; survival on 4th day; read-out: CD50 (dosage at which 50% of the animals survive)
How it was run: (§1)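 Intraperitoneal infection of 5-mouse groups, followed by two subcutaneous saline-formulated doses at 1 h and 3 h. CD50 in mg/kg interpolated from day-4 survival.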

[20] = system: Escherichia coli; experiment: as above; conditions: sc, 96 h; mice infected i.p. with Escherichia coli; s.c. twice, 1 h and 3 h after infection; survival on 4th day; read-out: CD50 (dosage at which 50% of the animals survive)
How it was run: (§2)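 The read-out was survival on the 4th day, expressed as the CD50 (mg/kg) interpolated from several doses. Mice in groups of 5 received an intraperitoneal aqueous bacterial suspension, then subcutaneous compound in physiological sodium chloride solution 1 and 3 hours later.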

[21] = system: Haemophilus influenzae; experiment: as above; conditions: sc, 96 h; mice infected i.p. with Haemophilus influenzae; s.c. twice, 1 h and 3 h after infection; survival on 4th day; read-out: CD50 (dosage at which 50% of the animals survive)
How it was run: as §1

[22] = system: Klebsiella pneumoniae; experiment: as above; conditions: sc, 96 h; mice infected i.p. with Klebsiella pneumoniae; s.c. twice, 1 h and 3 h after infection; survival on 4th day; read-out: CD50 (dosage at which 50% of the animals survive)
How it was run: as §2

[23] = system: Serratia marcescens; experiment: as above; conditions: sc, 96 h, mice infected i.p. with Serratia marcescens strain 1, s.c. twice, 1 h and 3 h after infection, survival on 4th day, read-out: CD50 (dosage at which 50% of the animals survive)
How it was run: as §2

[24] = system: Streptococcus pyogenes; experiment: as above; conditions: sc, 96 h; mice infected i.p. with Streptococcus pyogenes; s.c. twice, 1 h and 3 h after infection; survival on 4th day; read-out: CD50 (dosage at which 50% of the animals survive)
How it was run: as §2

[25] = system: Pseudomonas aeruginosa; experiment: as above; conditions: sc, 96 h; mice infected i.p. with Pseudomonas aeruginosa; s.c. three times, 1 h, 3 h and 5 h after infection; survival on 4th day; read-out: CD50 (dosage at which 50% of the animals survive)
How it was run: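 Mice (5/group) infected intraperitoneally, then given compound in physiological saline subcutaneously at 1 and 3 h post-infection (in some cases three times, at 1, 3 and 5 h). Survivors counted on day 4; CD50 (mg/kg), the dose giving 50% survival, interpolated from several dosages.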

[26] = system: Neisseria moningitidis; experiment: as above; conditions: sc, 96 h; mice infected i.p. with Neisseria moningitidis; s.c. twice, 1 h and 4 h after infection; survival on 4th day; read-out: CD50 (dosage at which 50% of the animals survive)
Description: Groups of 5 mice are infected intraperitoneally with an aqueous suspension of various pathogens. The test substance in physiological sodium chloride solution is administered subcutaneously twice, i.e. 1 hour and 3 hours after the infection. The number of surviving animals is determined on the 4th day. Various dosages are administered and that dosage at which 50% of the experimental animals survive (CD50, mg/kg) is determined by interpolation.
**Administered subcutaneously twice: 1 hour and 4 hours after the […]

[27] = Toxicity, LD50; conditions: in vivo
[28] = Enterobacter aerogenes strain 1
[29] = Enterobacter aerogenes strain 2
[30] = Pseudomonas aeruginosa strain 1
[31] = Pseudomonas aeruginosa strain 2
[32] = Pseudomonas aeruginosa strain 3
[33] = Streptococcus faecalis strain 1
[34] = Streptococcus faecalis strain 2
[35] = Streptococcus pyogenes strain 1, read-out: Minimum inhibitory concentration
[36] = Streptococcus pyogenes strain 2, read-out: Minimum inhibitory concentration

For CO/N=C(\C(=O)N[C@@H]1C(=O)N2C(C(=O)O)=C(CSc3nc(=O)c(O)nn3C)CS[C@H]12)c1c[se]c(N)n1 [Product C, (6R, 7R)-7-[2-(2-amino-4-selenazolyl)-2-[(Z)-methoxyimino]-acetamido]-3-[[(2,5-dihydro-6-hydroxy-2-methyl-5-oxo-as-triazin-3-yl)thio]methyl]-8-oxo-5-thia-1-azabicyclo[4.2.0]oct-2-ene-2-carboxylic acid disodium salt], the MIC ([1]; Escherichia coli strain 1) was 0.1 µg/mL, the MIC ([1]; Escherichia coli strain 2) was 0.05 µg/mL and the MIC ([1]; Escherichia coli strain 3) was 0.8 µg/mL. It also gave an MIC ([1]; Escherichia coli strain 4) of 0.4 µg/mL, an MIC ([1]; Escherichia coli strain 5) of 0.2 µg/mL and an MIC ([2]; Proteus mirabilis strain 1) of 0.012 µg/mL. It also gave an MIC ([2]; Proteus mirabilis strain 2) of 0.025 µg/mL, an MIC ([2]; Proteus mirabilis strain 3) of 1.6 µg/mL and an MIC ([2]; Proteus mirabilis strain 4) of 0.012 µg/mL. For the same compound, the MIC ([2]; Proteus mirabilis strain 5) was 0.012 µg/mL, the MIC [3] was 0.05 µg/mL and the MIC [4] was 0.1 µg/mL. It also gave an MIC [5] of 0.006 µg/mL, an MIC [6] of 1.6 µg/mL and an MIC ([7]; Klebsiella pseumoniae strain 1) of 0.1 µg/mL. The MIC ([7]; Klebsiella pseumoniae strain 2) was 0.05 µg/mL, the MIC ([7]; Klebsiella pseumoniae strain 3) was 0.1 µg/mL and the MIC ([8]; Serratia marcescens strain 1) was 0.4 µg/mL. For the same compound, the MIC ([8]; Serratia marcescens strain 2) was 1.6 µg/mL, the MIC ([8]; Serratia marcescens strain 3) was 0.1 µg/mL and the MIC ([9]; Enterobacter cloacae strain 1) was > 100 µg/mL. The MIC ([9]; Enterobacter cloacae strain 2) was 3.1 µg/mL, the MIC ([9]; Enterobacter cloacae strain 3) was > 100 µg/mL and the MIC [10, 28] was 0.1 µg/mL. It also gave an MIC [10, 29] of 0.1 µg/mL, an MIC ([11]; Citrobacter freundii strain 1) of 12.5 µg/mL and an MIC ([11]; Citrobacter freundii strain 2) of 0.1 µg/mL. It also gave an MIC [12, 30] of 3.1 µg/mL, an MIC [12, 31] of 6.3 µg/mL and an MIC [12, 32] of 1.6 µg/mL. For the same compound, the MIC ([13]; Staphylococcus aureus strain 1) was 3.1 µg/mL, the MIC ([13]; Staphylococcus aureus strain 2) was 6.3 µg/mL and the MIC ([13]; Staphylococcus aureus strain 3) was 3.1 µg/mL. The MIC ([13]; Staphylococcus aureus strain 4) was 6.3 µg/mL, the MIC [14] was 3.1 µg/mL and the MIC [15, 33] was > 100 µg/mL. For the same compound, the MIC [15, 34] was > 100 µg/mL, the MIC [16, 35] was 0.05 µg/mL and the MIC [16, 36] was ≤ 0.012 µg/mL. For the same compound, the MIC [17] was 0.05 µg/mL, the MIC [18] was 3.1 µg/mL and the ED50 [19] was 17 mg/kg. For the same compound, the ED50 [20] was < 0.003 mg/kg, the ED50 [21] was < 0.05 mg/kg and the ED50 [22] was 0.23 mg/kg. It also gave an ED50 [23] of 0.07 mg/kg, an ED50 [24] of 0.04 mg/kg and an ED50 [25] of 14 mg/kg. The ED50 [26] was < 0.05 mg/kg, the LD50 ([27]; po) was > 5000 mg/kg and the LD50 ([27]; sc) was > 4000 mg/kg.

CO/N=C(\C(=O)N[C@@H]1C(=O)N2C(C(=O)O)=C(CSc3nc(=O)c(O)nn3C)C[S+]([O-])[C@H]12)c1c[se]c(N)n1 (stereo partly drawn) [Product E, (6R, 7R)-7-[2-(2-amino-4-selenazolyl)-2-[(Z)-methoxyimino]-acetamido]-3-[[(2,5-dihydro-6-hydroxy-2-methyl-5-oxo-as-triazin-3-yl)-thio]methyl]-8-oxo-5-thia-1-azabicyclo[4.2.0]oct-2-ene-2-carboxylic acid 5-oxide disodium salt] showed an MIC ([1]; Escherichia coli strain 1) of 0.1 µg/mL, an MIC ([1]; Escherichia coli strain 2) of 0.025 µg/mL and an MIC ([1]; Escherichia coli strain 3) of 0.8 µg/mL. For the same compound, the MIC ([1]; Escherichia coli strain 4) was 0.05 µg/mL, the MIC ([1]; Escherichia coli strain 5) was 0.4 µg/mL and the MIC ([2]; Proteus mirabilis strain 3) was 0.05 µg/mL. For the same compound, the MIC ([2]; Proteus mirabilis strain 4) was 0.4 µg/mL, the MIC ([2]; Proteus mirabilis strain 5) was 0.1 µg/mL and the MIC [3] was 0.1 µg/mL. The MIC [4] was 0.05 µg/mL, the MIC [5] was 0.025 µg/mL and the MIC ([7]; Klebsiella pseumoniae strain 1) was 0.1 µg/mL. For the same compound, the MIC ([7]; Klebsiella pseumoniae strain 2) was 0.05 µg/mL, the MIC ([7]; Klebsiella pseumoniae strain 3) was 0.1 µg/mL and the MIC ([8]; Serratia marcescens strain 1) was 0.8 µg/mL. For the same compound, the MIC ([8]; Serratia marcescens strain 2) was 0.8 µg/mL, the MIC ([8]; Serratia marcescens strain 3) was 0.2 µg/mL and the MIC ([9]; Enterobacter cloacae strain 1) was 1.6 µg/mL. It also gave an MIC ([9]; Enterobacter cloacae strain 2) of 0.2 µg/mL, an MIC ([9]; Enterobacter cloacae strain 3) of 1.6 µg/mL and an MIC [10, 28] of 0.1 µg/mL. It also gave an MIC [10, 29] of 0.05 µg/mL, an MIC ([11]; Citrobacter freundii strain 1) of 0.1 µg/mL and an MIC ([11]; Citrobacter freundii strain 2) of 0.1 µg/mL. It also gave an MIC [12, 30] of 100 µg/mL, an MIC [12, 31] of 100 µg/mL and an MIC [12, 32] of 50 µg/mL. The MIC ([13]; Staphylococcus aureus strain 1) was > 12 µg/mL, the MIC ([13]; Staphylococcus aureus strain 2) was > 12 µg/mL and the MIC ([13]; Staphylococcus aureus strain 3) was > 12 µg/mL. The MIC ([13]; Staphylococcus aureus strain 4) was > 12 µg/mL, the MIC [14] was > 12 µg/mL and the MIC [15, 33] was > 12 µg/mL. The MIC [15, 34] was > 12 µg/mL, the MIC [16, 35] was 3.1 µg/mL and the MIC [16, 36] was 0.2 µg/mL. The MIC [17] was 3.1 µg/mL, the MIC [18] was > 12 µg/mL and the ED50 [19] was 0.06 mg/kg. The ED50 [20] was 0.017 mg/kg, the ED50 [21] was 1.8 mg/kg and the ED50 [23] was 0.03 mg/kg. For the same compound, the ED50 [24] was 0.13 mg/kg, the ED50 [25] was 75 mg/kg and the ED50 [26] was < 0.1 mg/kg. The LD50 ([27]; po) was > 5000 mg/kg and the LD50 ([27]; sc) was > 4000 mg/kg.
